Measurements reported in patent US9085549B2, “Compounds for the treatment of neurodegenerative diseases” (ProteoTech Inc., priority 2011, dated 2015).
Read-outs that look alike come from different tables or passages of the source.

Legend:
α-synuclein = α-synuclein (Homo sapiens (Human), UniProt P37840); experiment: Circular dichroism spectroscopy: inhibition of α-synuclein β-sheet formation; assay type: biochemical; conditions: read-out: Max % Inhibition
Description: For this purpose, α-synuclein was obtained from rPeptide as a lyophilized salt in 1 mg aliquots. Buffer components and other solvents were obtained from Sigma as A.C.S. Reagent grade or higher. […] After 24 hours, reactions were diluted 20-fold in PBS and CD spectra for each reaction were acquired on a Jasco J-810 spectropolarimeter using a 0.1 cm path length cell. All spectra were recorded with a step size of 0.1 nm, a bandwidth of 1 nm, and an α-synuclein concentration of 0.05 mg/ml. The spectra were trimmed at the shortest wavelength that still provided a dynode voltage less than 600V. The trimmed spectra were then subjected to a data processing routine beginning with noise reduction by Fourier transform followed by subtraction of a blank spectrum (vehicle only without α-synuclein). These blank corrected spectra were then zeroed at 260 nm and the units converted from millidegrees to specific ellipticity.
These percent β-sheet values were then used to provide the respective relative % inhibition of β-sheet induced by the compounds at given molar ratio of test compound:α-synuclein.

α-synuclein fibrils [1] = molecular target: T1, α-synuclein fibrils (Homo sapiens (Human), UniProt P37840); experiment: Thioflavin T fluorometry: disruption/disaggregation of pre-formed α-synuclein fibrils; assay type: biochemical; conditions: for Emax: 48 h, read-out: Max % Decrease
Description: The biological activity of the compounds provided herein as disruptors/inhibitors of Parkinson's disease α-synuclein fibrils was assessed by determining the efficacy of the compounds to cause a disassembly/disruption of pre-formed Parkinson's disease α-synuclein fibrils. In one study, Thioflavin T fluorometry was used to determine the effects of the compounds, and […]).
In one study, Thioflavin T fluorometry was used to determine the effects of the compounds on α-synuclein fibrils. In addition to test compounds, this experiment included a positive control compound and a negative control compound for reference.
For each compound, the % inhibition of Thioflavin T fluorescence (i.e. the decrease compared to control reactions containing α-synuclein alone) was plotted against the log of the concentration of the test compound (expressed as mole ratio relative to α-synuclein).

[2] = test system: BE-M17 human neuroblastoma cells stably transfected with A53T-mutant human α-synuclein; experiment: Thioflavin S staining of rotenone-induced α-synuclein aggregates in cells; assay type: cell-based; conditions: for inhibition at 0.5 µM / inhibition at 2 µM / inhibition at 1 µM / inhibition at 5 µM: Homo sapiens, Neuroblastoma cell, read-out: Efficacy % Inhibition
α-synuclein fibrils [3] = molecular target: T1, α-synuclein fibrils; experiment: biochemical; conditions: 48 h, read-out: Max % Decrease
TauRD = TauRD (Homo sapiens (Human), UniProt P10636); experiment: Circular dichroism spectroscopy: tau protein β-sheet formation
TauRD, sequence (P10636 561-689): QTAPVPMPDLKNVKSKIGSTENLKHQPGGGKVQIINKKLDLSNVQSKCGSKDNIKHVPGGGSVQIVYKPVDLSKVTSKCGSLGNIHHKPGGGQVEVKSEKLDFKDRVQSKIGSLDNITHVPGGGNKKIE
Description: CD spectroscopy was also performed to determine each compound's potency in inhibiting β-sheet secondary structure in TauRD under aggregation-prone conditions. The CD spectroscopy and Thio S assays were typically analyzed in parallel from the same sample preparation in order to correlate the results from two independent assays. CD spectra were taken from the samples containing +/− TauRD with increasing concentrations of compounds, and collected at 25° C. on a JASCO Model J-810 Spectropolarimeter. […] Since CD spectra reflect a total population of secondary structures (including random coil, β-sheet, and various intermediate conformers) of TauRD proteins under a given condition, the CD scores were established based on (1) the CD spectra derived from TauRD mixtures with different ratios of random coil/β-sheet; (2) time-dependent conformational changes of TauRD.

[4] = molecular target: human TauRD (Q244-E372 of Tau441) (Homo sapiens (Human), UniProt P10636); experiment: Thioflavin S fluorometry: inhibition of tau protein fibril formation; assay type: biochemical; conditions: for IC50: read-out: ThioS (IC50)
human TauRD (Q244-E372 of Tau441), sequence (P10636 561-689): as above
Description: Methods Mol Biol, 2005. 299: p. 35-51]. […] (with shaking at 800-1000 rpm for day).
The Thio S fluorometry assay as a primary screening method to identify tau protein aggregation inhibitors from our small molecule library. Aggregated tau fibrils were prepared in the presence of equimolar ratios of TauRD and heparin (10 μM each) in 20 mM Na-phosphate buffer, pH7.4. The reaction mixture was incubated at 37° C. with shaking (800-1000 rpm) for 22-24 hr (or for 3 days). In the Thio S inhibition assays, test compounds at 0, 0.1, 1, 10 and 100 μM were added at time 0 into the reaction containing TauRD and heparin. The same reaction mixture (+/− increasing concentrations of compounds) but without TauRD were also set up in parallel to serve as background controls. For all test compounds background fluorescence readings were very low, usually <5% of those of the TauRD-containing wells. For each compound, the IC50 was calculated using Prism version 5 software (GraphPad Software) by nonlinear regression [(Log [inhibitor] vs. normalized response; variable slope)]. […] The Thio S screening results are summarized in Table 7 (in which the reactions were incubated for 22 hours).

α-synuclein fibrils [5] = molecular target: T1, α-synuclein fibrils
[6] = test system: A53T α-synuclein-expressing BE-M17 cells; experiment: XTT assay: rotenone-induced cell death; assay type: cell-based, human
[7] = inhibition of β-sheet formation, 24 hours
[8] = Thioflavin T fluorescence, 2-day incubation
[9] = rotenone 0.5 μM, compound 0.5 μM
[10] = Homo sapiens, read-out: Max % Inhibition
[11] = TauRD and heparin 10 μM each, incubated for 22 hours
[12] = Homo sapiens; read-out: Max % Inhibition
[13] = Homo sapiens, read-out: % inhibition of cell death

Q: Which Emax (α-synuclein; [7]) does the source give for `Oc1ccc(-c2nc3cc(O)c(O)cc3o2)cc1O` [SA-54] here?
A: 100%

Q: And the Emax (α-synuclein fibrils [1]; [8])?
A: 98%

Q: And the inhibition at 0.5 µM [2, 9]?
A: 80%

Q: What about the inhibition at 2 µM ([2]; rotenone 0.5 μM, compound 2 μM) of the same compound?
A: 83%

Q: And the inhibition at 1 µM ([2]; rotenone 2 μM, compound 1 μM)?
A: 56%

Q: And the Emax (α-synuclein fibrils [3])?
A: 57%

Q: What does the source list for `Oc1ccc(-c2nnc(-c3cc(O)c(O)cc3Br)o2)cc1O` [SA-55]?
A: CD (TauRD): −; ThioS (IC50, μM) [4]: no inhibition

Q: How did the Emax (α-synuclein; [7]) turn out when `Oc1ccc(-c2nsc(-c3ccc(O)c(O)c3)n2)cc1O` [SA-57] was run?
A: 100%

Q: What about the “% inhibition of Congo red binding” value (α-synuclein fibrils [5]; test compound:α-synuclein molar ratio of 5:1) of the same compound?
A: 49%

Q: And the “% inhibition of Congo red binding” value (α-synuclein fibrils [5]; test compound:α-synuclein molar ratio of 50:1)?
A: 66%

Q: What about the Emax (α-synuclein fibrils [1]; [8]) of the same compound?
A: 100%

Q: What about the “% inhibition of Thioflavin T fluorescence” value (α-synuclein fibrils [1]; test compound:α-synuclein molar ratio of 1:1) of the same compound?
A: 83%

Q: What about the “% inhibition of Thioflavin T fluorescence” value (α-synuclein fibrils [1]; test compound:α-synuclein molar ratios ≧5:1) of the same compound?
A: 97-100%

Q: And the Emax (α-synuclein fibrils [3])?
A: 66%

Q: What does the source list for `Oc1ccc(-c2cc(Br)c(-c3ccc(O)c(O)c3)s2)cc1O` [SA-59]?
A: IC50 ([6]; Homo sapiens): 3.1 µM; Emax [6, 10]: 63%; Efficacy % Inhibition [2]: 67%; inhibition at 1 µM [2]: 69%; inhibition at 2 µM [2]: 76%; inhibition at 5 µM [2]: 56%

Q: What does the source list for `COc1ccc(-c2cc(-c3ccc(OC)c(OC)c3)c(-c3ccc(OC)c(OC)c3)s2)cc1OC` [SA-60, 2,3,5-tri(3′,4′-dimethoxyphenyl)thiophene]?
A: inhibition of rotenone-induced cell death (in words) [6]: significant, dose-dependent inhibition; IC50 ([6]; Homo sapiens): 12.5 µM; Emax [6, 10]: 33%; ThioS (IC50, μM) [4, 11]: no inhibition

Q: For `Oc1ccc(-c2ccc(Br)s2)cc1O` [SA-62], which “ThioS (IC50, μM)” value [4, 11] is on record?
A: no inhibition

Q: For `Oc1ccc(-c2ccc(-c3cc(O)c(O)c(O)c3)s2)cc1O` [SA-63, 5-(5-(3,4-dihydroxyphenyl)thiophen-2-yl)benzene-1,2,3-triol], which CD (TauRD; semi-quantitative CD score, aggregated TauRD) is on record?
A: +

Q: What about the IC50 [4, 11] of the same compound?
A: 10.1 ± 0.56 µM

Q: What does the source list for `Oc1ccc(-c2cnc(-c3ccc(O)c(O)c3)s2)cc1O` [SA-64]?
A: IC50 ([6]; Homo sapiens; read-out: IC50): 2.6 µM; Emax [6, 12]: 100%; Emax (α-synuclein; [7]): 100%; Emax (α-synuclein fibrils [1]; [8]): 100%; Emax (α-synuclein fibrils [3]): 85%; IC50 [4, 11]: 17.6 µM

Q: What does the source list for `Oc1ccc(-c2nnc(-c3ccc(O)c(O)c3)o2)cc1O` [SA-67]?
A: IC50 ([6]; Homo sapiens; read-out: IC50): 8.5 µM; Emax [6, 12]: 44%; Emax (α-synuclein; [7]): 100%; Emax (α-synuclein fibrils [1]; [8]): 76%; inhibition at 0.5 µM [2, 9]: 75%; inhibition at 1 µM ([2]; rotenone 0.5 μM, compound 1 μM): 48%; inhibition at 2 µM ([2]; rotenone 0.5 μM, compound 2 μM): 92%; Emax (α-synuclein fibrils [3]): 25%

Q: What does the source list for `Oc1ccc(-c2cn(-c3ccc(O)c(O)c3)nn2)cc1O` [SA-68]?
A: IC50 ([6]; Homo sapiens; read-out: IC50): 24 µM; Emax [6, 12]: 61%; Emax (α-synuclein; 24 h): 100%; Emax (α-synuclein fibrils [1]): 100%; inhibition at 1 µM ([2]; rotenone 0.5 μM, compound 1 μM): 69%; inhibition at 5 µM ([2]; rotenone 0.5 μM, compound 5 μM): 73%; inhibition at 5 µM ([2]; rotenone 2 μM, compound 5 μM): 44%

Q: What does the source list for `Oc1ccc(-c2cnc(-c3ccc(O)c(O)c3)o2)cc1O` [SA-70]?
A: IC50 ([6]; Homo sapiens): 5.6 µM; Emax [6, 10]: 78%; Emax (α-synuclein; 24 h): 92%; Emax (α-synuclein fibrils [1]): 100%; Emax (α-synuclein fibrils [3]): 88%

Q: `Oc1ccc(-c2cnco2)cc1O` [SA-73] was tested. Which “inhibition of rotenone-induced cell death (in words)” value ([6]; 500 nM rotenone) did it give?
A: significant, dose-dependent inhibition

Q: And the “Max % Inhibition” value ([6]; inhibition of cell death, 500 nM rotenone)?
A: 77%

Q: And the IC50 ([6]; inhibition of cell death, 500 nM rotenone; read-out: IC50)?
A: 35 to 75 µM

Q: What about the “Max % Decrease” value (α-synuclein fibrils [5]; Congo red binding, 2-day incubation) of the same compound?
A: 35%

Q: And the “EC50 (mole ratio)” value (α-synuclein fibrils [5]; Congo red binding, moles of test compound per mole of α-synuclein, 2 days)?
A: 1.1 mole ratio

Q: And the “Max % Decrease” value (α-synuclein fibrils [1]; [8])?
A: 100%

Q: And the “EC50 (mole ratio)” value (α-synuclein fibrils [1]; Thioflavin T fluorescence, moles of test compound per mole of α-synuclein, 6.9 μM pre-formed fibrils, 2 days)?
A: 0.52 mole ratio

Q: What about the “disruption/disassembly of preformed α-synuclein fibrils (in words)” value (α-synuclein fibrils [1]; molar ratios 50:1 to 0.01:1) of the same compound?
A: dose-dependent and extensive disruption/disassembly

Q: With `Oc1ccc(Cc2cc(O)c(O)cc2I)cc1O` [SA-93] as the compound, how does the IC50 ([6]; Homo sapiens; read-out: IC50) read?
A: 19.8 µM

Q: And the Emax [6, 12]?
A: 100%

Q: What about the Emax (α-synuclein; [7]) of the same compound?
A: 91%

Q: And the Emax (α-synuclein fibrils [1]; [8])?
A: 100%

Q: And the inhibition at 2 µM ([2]; rotenone 2 μM, compound 2 μM)?
A: 45%

Q: What about the Emax (α-synuclein fibrils [3]) of the same compound?
A: 62%

Q: Which results are given for `O=C(/C=C/c1ccc(O)c(O)c1)c1ccc(O)c(O)c1` [SA-94]?
A: IC50 ([6]; Homo sapiens): 2.3 µM; inhibition at 3.5 µM [6, 13]: 35%; inhibition at 15 µM [6, 13]: 58%; Emax [6, 10]: 58%; Emax (α-synuclein; 24 h): 95%; Emax (α-synuclein fibrils [1]): 100%; inhibition at 0.5 µM [2]: 70%; inhibition at 1 µM [2]: 63%; inhibition at 2 µM [2]: 85%; Emax (α-synuclein fibrils [3]): 65%

Q: `O=C(/C=C/c1cc(O)c(O)cc1Br)c1ccc(O)c(O)c1` [SA-95] was tested. Which IC50 ([6]; Homo sapiens; read-out: IC50) did it give?
A: 3.8 µM

Q: What about the Emax [6, 12] of the same compound?
A: 63%

Q: And the Emax (α-synuclein; [7])?
A: 97%

Q: What about the Emax (α-synuclein fibrils [1]; [8]) of the same compound?
A: 100%

Q: And the inhibition at 0.5 µM [2, 9]?
A: 73%

Q: And the inhibition at 1 µM ([2]; rotenone 0.5 μM, compound 1 μM)?
A: 98%

Q: What about the inhibition at 2 µM ([2]; rotenone 0.5 μM, compound 2 μM) of the same compound?
A: 90%

Q: What about the inhibition at 0.5 µM ([2]; rotenone 2 μM, compound 0.5 μM) of the same compound?
A: 95%

Q: And the Emax (α-synuclein fibrils [3])?
A: 64%

Q: For `O=C(/C=C/c1ccc(O)c(O)c1)c1cc(O)c(O)cc1Br` [SA-96], which IC50 ([6]; Homo sapiens) is on record?
A: 4.3 µM

Q: And the Emax [6, 10]?
A: 61%

Q: What about the Emax (α-synuclein; 24 h) of the same compound?
A: 100%

Q: And the Emax (α-synuclein fibrils [1])?
A: 100%

Q: And the inhibition at 0.5 µM [2]?
A: 73%

Q: And the inhibition at 1 µM [2]?
A: 82%

Q: And the inhibition at 2 µM [2]?
A: 81%

Q: And the Emax (α-synuclein fibrils [3])?
A: 72%

Q: How did the IC50 ([6]; Homo sapiens; read-out: IC50) turn out when `Oc1ccc(Cc2cc(O)c(O)cc2O)cc1O` [SA-97] was run?
A: 39 µM

Q: And the Emax [6, 12]?
A: 42%

Q: And the Emax (α-synuclein; [7])?
A: 100%

Q: What about the Emax (α-synuclein fibrils [1]; [8]) of the same compound?
A: 99%

Q: What about the Emax (α-synuclein fibrils [3]) of the same compound?
A: 40%

Q: `CC(=O)N1N=C(c2ccc(O)c(O)c2)CC1c1ccc(O)c(O)c1` (centres unmarked) [SA-98] was tested. Which IC50 ([6]; Homo sapiens) did it give?
A: 48 µM

Q: And the Emax [6, 10]?
A: 56%

Q: What about the Emax (α-synuclein; 24 h) of the same compound?
A: 100%

Q: What about the Emax (α-synuclein fibrils [1]) of the same compound?
A: 100%

Q: And the inhibition at 0.5 µM [2]?
A: 74%

Q: What about the inhibition at 1 µM [2] of the same compound?
A: 76%

Q: And the Emax (α-synuclein fibrils [3])?
A: 44%

Q: `O=[N+]([O-])c1cc(-c2ccc(O)c(O)c2)ccc1-c1ccc(O)c(O)c1` [SA-99] was tested. Which Emax (α-synuclein; [7]) did it give?
A: 98%

Q: And the Emax (α-synuclein fibrils [1]; [8])?
A: 100%

Q: And the Emax (α-synuclein fibrils [3])?
A: 54%
